In a melting point compilation (Tetko et al.; mined from patent text by program, amines drawn as free bases though some values may be those of a salt):

Compound	melting point
CNC(=O)N(OC)C(=O)Nc1ccccc1F	144 to 147 °C
Fc1cc(OCc2ccccc2)ccc1-c1ncc(Br)cn1	124 °C
CCOC(=O)C1Cc2cc(-c3noc4ccccc34)c(Cl)c(Cl)c2O1 (stereo not given)	114 to 116 °C
Cc1cc(-c2ccc(C(F)(F)F)cc2)nc(-n2cnc(-c3ccc(S(N)(=O)=O)s3)c2)n1	277 °C
CC(C)Cc1cnc(N)c([N+](=O)[O-])c1	147 to 149 °C
ClCc1cccc2c(-c3ccc(Br)cc3)nccc12	116 to 118 °C
CC=CC(=O)NCc1ccccc1	112 to 114 °C
CCc1nnc2nc(-c3ccccc3)ccn12	246 to 247 °C
NC(=O)c1ccc(F)c2c1CC(N(CCCc1c[nH]c3ccc(Cl)cc13)C1CCC1)CO2 (stereo not given)	152 to 160 °C
CSC(CC(=O)c1cc(Cl)c(C)c(Cl)c1)C(=O)O (stereo not given)	158 to 160 °C
O=c1[nH]c2cccc(Cl)c2s1	202 to 203 °C
CCCCCOc1ccc2cc(C(C)C(=O)O)ccc2c1 (stereo not given)	97 to 99 °C
CNC(=O)c1cc2c(Oc3ccc(C(F)(F)F)cc3)cnc(Cl)c2s1	178 to 179 °C
N#Cc1c(N2CCN(C(=O)C3CCCO3)CC2)c2ccccc2n(Cc2ccc(F)cc2)c1=O (stereo not given)	123 to 135 °C
CNC(=O)CN(c1ccc(Cl)cc1N(C)c1ccccc1)S(=O)(=O)c1ccc(OC)c(OC)c1	149 °C
N#Cc1nn(-c2c(Cl)cc(C(F)(F)F)cc2Cl)c(N)c1-c1ccc(C(F)(F)F)o1	148 to 151 °C
O=c1oc2ccccc2c(O)c1-c1ccc(Cl)c(Cl)c1	262 °C
N#Cc1ccc(-c2cn(-c3ccc(C#N)cc3)c(SCCO)n2)cc1	> 300 °C
N=C(Nc1ccc2[nH]cc(-c3ccncc3)c2c1)c1cccs1	183 to 185 °C
COc1ccc(C(=O)N(C(=O)c2ccc(OC)cc2)c2nc3ccc(N4CCN(Cc5ccccc5)CC4)cc3c(NCc3ccccc3)c2C#N)cc1	157 °C
COc1ccc(CSc2nnc(-c3ccc4nccn4c3)o2)cc1	155 to 156 °C
Clc1c2nc3ccccc3c-2[nH]c2ccccc12	220 to 222 °C
Cc1cc2c(cc1CSCC(=O)O)OCO2	90 to 92 °C
CC(=O)NCCNc1nc(Nc2ccc3[nH]nnc3c2)ncc1C(F)(F)F	> 300 °C
O=C1C(=C(O)Cc2ccccc2)SC(=S)N1c1ccc(Cl)cc1	134 to 137 °C

Compound	melting point
N#Cc1ccc2[nH]cc(C3=CCC4(CC3)OCCO4)c2c1	158 to 160 °C
NC(=O)C1=C(NCc2ccccc2)CCCC1	73 to 74 °C
CCc1csc2ccc3[nH]c4c(c3c12)CN(C)CC4	181 to 182 °C
CNC(=O)[C@@H]1C[C@@H](OC)CN1S(=O)(=O)c1ccc(Cl)c(CBr)c1Cl	64 °C
O=C(CCN1CCCC1)Nc1cc(-c2nnc(SCc3cccc(F)c3)o2)ccn1	114 to 115 °C
COc1ccc(C=CC(=O)N2CC(CCl)c3c2cc(N)c2ccccc32)cc1 (stereo not given)	114 to 116 °C
CC1=C(C(=O)CS(=O)(=O)NC(C)C)C(c2cccc([N+](=O)[O-])c2)C(C(=O)OC(C)C)=C(C)N1 (stereo not given)	119 to 121 °C
S=C=NCc1cc(-c2ccccc2)no1	66 °C
CN(C)C(=O)NS(=O)(=O)c1ccccc1OC(Cl)=CCl	218 to 220 °C
Brc1cccc(Br)c1I	99 to 100 °C
CNc1sccc1C(=O)c1ccccc1F	184 to 186 °C
COc1ccc(C(=O)NCCc2cccc(OCc3ccccc3)c2)cc1OC	82 to 84 °C
O=c1cc(-c2ccccc2)[nH]c(=S)[nH]1	266 to 267 °C
CC(C)NC(=O)c1cc(N(C)C)cc(Oc2cccc(C(F)(F)F)c2)n1	108 to 110 °C
Cc1nc(-c2ccc(Cn3sccc3=O)cc2)cs1	150 to 152 °C
CC(C)(C)[Si](C)(C)Oc1ccc(C(=O)O)cc1C12CC3CC(CC(C3)C1)C2	250 to 252 °C
CC(C)(C#N)c1cc(Cn2cncn2)cc(-c2ccc(OS(N)(=O)=O)c(Cl)c2)c1	71 to 74 °C
O=C(Nc1cccc(Br)c1)Oc1ccc2c(c1)CCCN2	198 °C
CCc1cc(C(=O)Nc2cc(Oc3ccc4nc(NC(=O)C5CC5)cn4n3)ccc2F)n(C)n1	236 °C
CCOC(=O)N(C)n1cccc1C(=O)c1ccccc1	50 to 52 °C
CCCCc1c(C)c2ccc(OCCCN3CCN(Cc4ccc(Cl)cc4)CC3)cc2[nH]c1=O	148 to 149 °C
OC1CSC(Oc2ccccc2-c2cccnc2)C(O)C1O (stereo not given)	195 °C
COC(Oc1cc(Cl)c(Cl)c(Cl)c1)C(=O)O (stereo not given)	101 to 104 °C
Cc1cc(-c2cc(C(F)(F)F)n3cnc(C#N)c3n2)ccc1C(F)(F)F	217 °C
CC(C)N(C(=O)CC(C#N)(CCN1CCCCC1)c1ccccc1Cl)C(C)C (stereo not given)	83 to 85 °C
